The test system of this test is LC3B. Put plainly: cellular autophagy screening: LC3B spots by immunocytochemistry and automated confocal imaging. The format is cell-based. As to conditions: Table 1-a; relative to negative DMSO control; 100 µM, 1 hour; n.e. means no effect. As to the method: For screening purposes, cells were seeded in 384 well plates and left over night for attachment.
Afterwards, medium was removed and 4 % (w/v) paraformaldehyde (PFA) in PBS buffer was added to the cells for 20 minutes, incubated at room temperature. Cells were permeabilized with 0.1 % (v/v) Triton X-100 for 10 min at room temperature and washed with PBS. Cells were blocked with 3 % (w/v) bovine serum albumin (BSA) in PBS for 45 minutes at 37 °C and then incubated with anti-LC3B (PM036, MBL) or anti-p62 (PM045 or M162-3, MBL) primary antibody diluted in 0.3 % BSA (1:2000 or 1:500) for 1.5-2 hours at 37 °C. Cells were washed three times with PBS.
384 well plates were then analyzed with an automated confocal microscope Opera (PerkinElmer) enabling high throughput high content screening image analysis. […] A water immersion 60x objective was used for optical slicing and stacking (5x0.5 µm stacks). […] Signal was detected with a fast gated CCD camera. Acapella software (PerkinElmer) is an algorithm based high content imaging and analysis software used in multi-parametric multiplex assays. Acapella was used to follow cell viability (i.e. number of cells) and the number of LC3B and p62 spots per cell.
The LC3B protein is a ubiquitin-like protein that can be conjugated to phosphatidylethanolamine (PE) in the membrane of the incipient autophagosome. The nonlipidated and lipidated forms are usually referred to as LC3B-I and LC3B-II, respectively. […] Autophagic flux is often inferred on the basis of LC3B-II turnover, measured by western blot (WB) or immunofluorescence (IF) in the presence and absence of lysosomal degradation. […] Lysosomal degradation can be prevented e.g. through the use of compounds that neutralize the lysosomal pH such as Bafilomycin A1 (BafA1) or chloroquine (CQ). […] An additive or supra-additive effect in LC3B-II levels (WB) and LC3B-positive punctae numbers (IF) may indicate that the treatment enhances autophagic flux. […] This assay can be complemented by simultaneous monitoring of autophagosomal substrates or autophagosomal substrate receptors (e.g. SQSTM1/p62) by WB and/or IF. For example, an increase in LC3B-II levels in combination with the accumulation of SQSTM1/p62 is indicative of a blockage of the autophagy pathway at terminal stages.

Take `Brc1ccc(CSC2=NCN(Cc3cccnc3)CN2)cc1` [Compound I-1, 6-((4-bromobenzyl)thio)-3-(pyridin-3-ylmethyl)-1,2,3,4-tetrahydro-1,3,5-triazine]: the “LC3B inhibition cell based Fold increase of LC3B spots [DMSO control 1.0]” value came to 4.9.

These data come from EP3184514A1, “AUTOPHAGY INHIBITORS” (Deutsches Krebsforschungszentrum, priority 2015, dated 2017).
